Measured values as given in patent publication US10512648B2, “Tyrosine kinase inhibitors for use in a method of treating cancer in association with a reduced caloric intake” (UNIVERSITÀ DEGLI STUDI DI GENOVA, priority 2014, dated 2019).

How the values were obtained:
[1] = test system: A549 cells; assay: viability of A549 cells, sulforodhamine B-based assay, with or without STS; format: cell-based
Description: With reference to FIG. 1D, 3×10^3 A549 cells were plated in 96 well plates and treated with Crizotinib in the presence or absence of STS, as in the experiments of FIGS. 1A and 1B, before viability was measured in sulforodhamine B-based assays.

[2] = test system: H3122 cells; assay: H3122 cells in Petri dishes, sulforodhamine B staining after treatment and recovery; format: cell-based; conditions: H3122, STS conditions, 400 nM, 5 days then 2 days regular medium (FIG. 1C)
Description: With reference to FIG. 1C, 10^5 H3122 cells were plated in 60 mm Petri dishes in regular DMEM medium. 24 h later, the cell medium was removed and cells were incubated for 24 h either in regular medium (CTR) or in STS conditions. 24 h later 400 nM Crizotinib was added (or not) to the cells. 5 days later, the cell medium was removed and the cells were cultured for two additional days in regular DMEM medium. 48 h later, the plates were stained with sulforodhamine B and photographed.

[3] = test system: phospho-ERK (Thr202/Tyr204); assay: immunoblotting of phospho-ERK and total ERK in H3122 cell lysates; format: cell-based; conditions: H3122, 400 nM, 24 h; starved cells compared with cells in standard conditions
Description: With reference to FIG. 1E, 10^5 H3122 cells were plated in 6 well plates in regular DMEM medium containing 10% FBS. 24 h later, the cell medium was removed and cells were incubated for 24 h either in the same medium (CTR) or in low-glucose (0.5 g/L) DMEM containing 1% FBS (STS). 24 h later cells were treated or not with 400 nM Crizotinib. After 24 h, cell were used for cell lysate preparation and phospho-ERK (Thr202/Tyr204), and total ERK levels were detected by immunoblotting.

[4] = test system: H3122 cells engineered to overexpress HRAS or HRAS V12; assay: sensitivity of H3122 cells engineered to overexpress HRAS or HRAS V12; format: cell-based; conditions: data not shown
[5] = test system: H3122 xenografts; assay: H3122 xenograft growth in mice; format: in vivo, BALB/c athymic mice (nu+/nu+)
Description: With reference to FIG. 2A, six- to eight-week-old BALB/c athymic mice (nu+/nu+) were injected s.c. with 5×10^6 H3122 cells. When tumors became palpable, mouse were randomly assigned to one of four arms (six mice per treatment arm): control—normal diet (—); Crizotinib—normal diet with 3 cycles of Crizotinib (25 mg/kg/day via oral gavage for 5 days a week, Mon-Fri); STS [fasting (water only) for 48 h (Sun-Tue) for three cycles at 1-week intervals]; STS+Crizotinib. Tumor size was measured daily and tumor volume was calculated using the formula: tumor volume=(w^2×W)×π/6, where “w” and “W” are “minor side” and “major side” (in mm), respectively. At the end of treatment, mice were euthanized and tumor masses were excised and weighted (see FIG. 2B). Mouse weight was also monitored daily.

[6] = test system: H3122 cells; assay: viability of H3122 cells, sulforodhamine B-based assay, regular medium (CTR) vs STS conditions; format: cell-based; conditions: H3122 NSCLC cells (EML4-ALK translocation); low glucose 0.5 g/L, 1% FBS (STS) vs regular medium; 72 h
Description: With reference to FIGS. 1A and 1B, 3×10^3 H3122 cells were plated in 96 well plates in regular DMEM medium containing 10% FBS. 24 h later, the cell medium was removed and cells were incubated for 24 h either in the same medium (CTR) or in low-glucose (0.5 g/L) DMEM medium containing 1% FBS (STS). 24 h later cells were treated or not with the indicated concentrations of Crizotinib or […] (TAE). 72 h later, viability was measured with sulforodhamine B-based assays.

[7] = test system: AKT and ERK1/2 signaling; assay: immunoblotting of phospho-AKT, total AKT, phospho-ERK and total ERK in SKBR3 cell lysates; format: cell-based; conditions: SKBR3, 100 nM, 24 h; STS-mimicking conditions compared with Lapatinib alone (FIG. 4A)
Description: (§1) With reference to FIGS. 4A-C, 10^5 SKBR3 (FIG. 4A) or BT474 (FIG. 4B) cells were plated in 6 well plates in regular DMEM medium containing 10% FBS. 24 h later, the cell medium was removed and cells were incubated for 24 h either in the same medium (CTR) or in low-glucose (0.5 g/L) DMEM medium containing 1% FBS (STS). 24 h later cells were treated or not with 100 nM Lapatinib. After 24 h, cell were either used for cell lysate preparation or for flow cytometry assays. Cell lysates were used for phospho-AKT (Ser473), total AKT, phospho-ERK (Thr202/Tyr204), and total ERK level detection by immunoblotting (FIGS. 4A and 4B). Flow cytometry (with a FACS Calibur, BD) was used to estimate cell size (FSC) by acquiring 10,000 events per cell sample (FIG. 4C).

[8] = test system: MCF7 cells; assay: viability of MCF7 cells, with or without STS conditions; format: cell-based
[9] = test system: SKBR3 cells; assay: viability of SKBR3 cells, sulforodhamine B-based assay, CTR vs STS; format: cell-based; conditions: SKBR3 HER2+ BC cells, 100 nM, 72 h
Description: With reference to FIGS. 3A and 3B, 3×10^3 SKBR3 (FIG. 3A) or BT474 (FIG. 3B) cells/well were plated in 96 well plates in regular DMEM medium containing 10% FBS and 2.5 g/L glucose. 24 h later, the cell medium was removed and cells were incubated for 24 h either in the same medium (CTR) or in low-glucose (0.5 g/L) DMEM medium containing 1% FBS (STS). 24 h later cells were treated or not with 100 nM Lapatinib. 72 h later, viability was measured in sulforodhamine B-based assays.
With reference to FIGS. 3D and 3E, BT474 or MCF7 cells were plated as detailed with regard to FIGS. 3A and 3B, treated with 100 nM CP724714 (FIG. 3D) or Lapatinib (FIG. 3E) with or without STS conditions as detailed with respect to FIGS. 3A and 3B before viability was detected.

[10] = test system: AKT and ERK1/2 signaling; assay: immunoblotting of phospho-AKT, total AKT, phospho-ERK and total ERK in BT474 cell lysates; format: cell-based; conditions: BT474, 100 nM, 24 h; STS-mimicking conditions compared with Lapatinib alone (FIG. 4B)
Description: as §1

[11] = test system: BT474 cells; assay: viability of BT474 cells, sulforodhamine B-based assay, CTR vs STS; format: cell-based; conditions: BT474 HER2+ BC cells, 100 nM, 72 h

Row | SMILES | sensitivity of A549 cells (viability) ([1]; A549 NSCLC cells without EML4-ALK translocation) | effect of STS on activity in A549 cells ([1]; A549 cells, STS vs regular medium) | killing of NSCLC cells [2] | blocking of MAPK pathway signaling (ERK1/2 phosphorylation) [3] | sensitivity of HRAS or HRAS V12 overexpressing H3122 cells [4] | activity on H3122 xenografts of the combination with fasting ([5]; 25 mg/kg/day oral gavage plus 48 h fasting cycles, compared with each treatment alone, p<0.05) | growth of H3122 xenografts ([5]; normal diet, 25 mg/kg/day oral gavage, 5 days a week, 3 cycles) | effect of STS conditions on activity (viability of H3122 cells) [6] | inhibition of AKT and ERK1/2 signaling [7] | sensitivity of MCF7 cells (viability) ([8]; MCF7 cells without HER2 amplification, 100 nM) | effect of STS on activity in MCF7 cells ([8]; MCF7 cells, STS vs CTR) | sensitization by STS conditions (viability of SKBR3 cells) [9] | inhibition of AKT and ERK1/2 signaling [10] | sensitization by STS conditions (viability of BT474 cells) [11]
1 | C[C@@H](Oc1cc(-c2cnn(C3CCNCC3)c2)cnc1N)c1c(Cl)ccc(F)c1Cl [Crizotinib] | insensitive | did not increase the activity | virtual complete killing | more effective at blocking signaling through the MAPK pathway | resistant | more active than either type of treatment alone | effectively reduced the growth | strongly potentiated | – | – | – | – | – | –
2 | CS(=O)(=O)CCNCc1ccc(-c2ccc3ncnc(Nc4ccc(OCc5cccc(F)c5)c(Cl)c4)c3c2)o1 [Lapatinib] | – | – | – | – | – | – | – | – | more pronounced inhibition | insensitive | failed to enhance the activity | strongly sensitized | more pronounced inhibition | strongly sensitized
3 | COc1cc(N2CCC(N3CCN(C)CC3)CC2)ccc1Nc1ncc(Cl)c(Nc2ccccc2S(=O)(=O)C(C)C)n1 [TAE684] | – | – | – | – | – | – | – | strongly potentiated | – | – | – | – | – | –
